Data taken from patent US12448388B2, “PRMT5 inhibitors and uses thereof” (Gilead Sciences, Inc., priority 2023, dated 2025).

Each compound was assayed on HCT116 MTAP-deleted cell lines (assay: Cell viability assay (CellTiter-Glo, 7 days), HCT116 MTAP-deleted). Conditions: Homo sapiens, HCT-116.
Assay type: cell-based
In short: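 HCT116 MTAP-deleted and wild-type cells exposed to serially diluted compound for 7 days at 37 °C, 5% CO2. Viability read by CellTiter-Glo luminescence; CC50 derived per line, with selectivity comparing WT to MTAP-deleted, limited solubility can inflate values marked *.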
With `Nc1nc2cc(F)c(C(=O)N3CC4(CCC3c3ccc(C(F)(F)F)cn3)CC4)cc2n2cncc12` (stereo not shown) [Ff-149, (4-amino-7-fluoroimidazo[1,5-a]quinoxalin-8-yl)(6-(5-(trifluoromethyl)pyridin-2-yl)-5-azaspiro[2.5]octan-5-yl)methanone] the CC50 was less than 100 nM.

Same assay, conditions: Homo sapiens, HCT-116; cell viability, HCT116 MTAP-deleted; class symbols; read-out: CC50
Work on `Cc1ncc2c(N)nc3cnc(C(=O)N4CCC[C@@H]5Oc6cc(C(F)(F)F)c(F)cc6[C@@H]54)cc3n12` [Ff-108, (4-amino-1-methylimidazo[1,5-a]pyrido[3,4-e]pyrazin-8-yl)((4aS,9bS)-8-fluoro-7-(trifluoromethyl)-3,4,4a,9b-tetrahydrobenzofuro[3,2-b]pyridin-1(2H)-yl)methanone] yielded a CC50 of less than 100 nM.
`CC1Oc2cc(C(F)(F)F)ccc2C1N(C)C(=O)c1cc2c(cc1F)nc(N)c1cncn12` (stereo not shown) [Ff-114, 4-amino-7-fluoro-N-methyl-N-(2-methyl-6-(trifluoromethyl)-2,3-dihydrobenzofuran-3-yl)imidazo[1,5-a]quinoxaline-8-carboxamide] gave a CC50 of less than 100 nM.
Work on `Cc1ncn2c1c(N)nc1cnc(C(=O)N3CCC[C@@H]4Oc5cc(C(F)(F)F)c(F)cc5[C@@H]43)cc12` [Ff-116, (4-amino-3-methylimidazo[1,5-a]pyrido[3,4-e]pyrazin-8-yl)((4aS,9bS)-8-fluoro-7-(trifluoromethyl)-3,4,4a,9b-tetrahydrobenzofuro[3,2-b]pyridin-1(2H)-yl)methanone] yielded a CC50 of less than 100 nM.
With `Nc1nc2ccc(C(=O)N3CCC[C@@H]4Oc5c(ccc(C(F)(F)F)c5F)[C@@H]43)cc2n2cncc12` [Ff-118, (4-aminoimidazo[1,5-a]quinoxalin-8-yl)((4aS,9bS)-6-fluoro-7-(trifluoromethyl)-3,4,4a,9b-tetrahydrobenzofuro[3,2-b]pyridin-1(2H)-yl)methanone] the CC50 was less than 100 nM.
`Cc1ncn2c1c(N)nc1cnc(C(=O)N3CCC[C@@H]4Oc5c(ccc(C(F)(F)F)c5F)[C@@H]43)cc12` [Ff-119, (4-amino-3-methylimidazo[1,5-a]pyrido[3,4-e]pyrazin-8-yl)((4aS,9bS)-6-fluoro-7-(trifluoromethyl)-3,4,4a,9b-tetrahydrobenzofuro[3,2-b]pyridin-1(2H)-yl)methanone] showed a CC50 of less than 100 nM.
`Nc1nc2cc(F)c(C(=O)N3C[C@@H](F)C[C@@H]4Oc5cc(C(F)(F)F)ccc5[C@@H]43)cc2n2cncc12` [Ff-120, (4-amino-7-fluoroimidazo[1,5-a]quinoxalin-8-yl)((3S,4aS,9bS)-3-fluoro-7-(trifluoromethyl)-3,4,4a,9b-tetrahydrobenzofuro[3,2-b]pyridin-1(2H)-yl)methanone] gave a CC50 of less than 100 nM.
`Cc1ncc2c(N)nc3ccc(C(=O)N4CCC[C@@H]5Oc6c(ccc(C(F)(F)F)c6F)[C@@H]54)cc3n12` [Ff-122, (4-amino-1-methylimidazo[1,5-a]quinoxalin-8-yl)((4aS,9bS)-6-fluoro-7-(trifluoromethyl)-3,4,4a,9b-tetrahydrobenzofuro[3,2-b]pyridin-1(2H)-yl)methanone] gave a CC50 of less than 100 nM.
`CN(Cc1ccc2c(c1)OC(F)(F)O2)C(=O)c1ccc2nc(N)c3cncn3c2c1` [Ff-123, 4-amino-N-((2,2-difluorobenzo[d][1,3]dioxol-5-yl)methyl)-N-methylimidazo[1,5-a]quinoxaline-8-carboxamide] showed a CC50 of 100 to 1000 nM.
Compound `CN(Cc1ccc2c(c1)OC(F)(F)O2)C(=O)c1cc2c(cc1F)nc(N)c1cncn12` [Ff-124, 4-amino-N-((2,2-difluorobenzo[d][1,3]dioxol-5-yl)methyl)-7-fluoro-N-methylimidazo[1,5-a]quinoxaline-8-carboxamide] has a CC50 of 100 to 1000 nM.
In the case of `COc1cc(C(F)(F)F)ccc1CN(C)C(=O)c1ccc2nc(N)c3cncn3c2c1` [Ff-125, 4-amino-N-(2-methoxy-4-(trifluoromethyl)benzyl)-N-methylimidazo[1,5-a]quinoxaline-8-carboxamide], the CC50 is reported as 100 to 1000 nM.
For `COCc1cc(C(F)(F)F)ccc1CN(C)C(=O)c1ccc2nc(N)c3cncn3c2c1` [Ff-126, 4-amino-N-(2-(methoxymethyl)-4-(trifluoromethyl)benzyl)-N-methylimidazo[1,5-a]quinoxaline-8-carboxamide], the CC50 was 100 to 1000 nM.
For `Cc1nc2cc([C@H]3CC[C@H](C)CN3C(=O)c3ccc4nc(N)c5cnc(C)n5c4c3)ccc2s1` [Ff-127], the CC50 was 100 to 1000 nM.
Work on `Nc1nc2cc(F)c(C(=O)N3CCOCC3c3ccc(C(F)(F)F)cn3)cc2n2cncc12` (stereo not shown) [Ff-128, (4-amino-7-fluoroimidazo[1,5-a]quinoxalin-8-yl)(3-(5-(trifluoromethyl)pyridin-2-yl)morpholino)methanone] yielded a CC50 of less than 100 nM.
For `C[C@@H]1CN(C(=O)c2cc3c(cc2F)nc(N)c2cncn23)[C@@H](c2ccc(C(F)(F)F)cn2)CO1` [Ff-129, (4-amino-7-fluoroimidazo[1,5-a]quinoxalin-8-yl)((2R,5S)-2-methyl-5-(5-(trifluoromethyl)pyridin-2-yl)morpholino)methanone], the CC50 was less than 100 nM.
For `C[C@H]1CN(C(=O)c2cc3c(cc2F)nc(N)c2cncn23)[C@@H](c2ccc(C(F)(F)F)cn2)CO1` [Ff-130, (4-amino-7-fluoroimidazo[1,5-a]quinoxalin-8-yl)((2S,5S)-2-methyl-5-(5-(trifluoromethyl)pyridin-2-yl)morpholino)methanone], the CC50 was less than 100 nM.
With `C[C@@H]1COC[C@H](c2ccc(C(F)(F)F)cn2)N1C(=O)c1cc2c(cc1F)nc(N)c1cncn12` [Ff-131, (4-amino-7-fluoroimidazo[1,5-a]quinoxalin-8-yl)((3R,5S)-3-methyl-5-(5-(trifluoromethyl)pyridin-2-yl)morpholino)methanone] the CC50 was less than 100 nM.
Compound `C[C@@H]1OCCN(C(=O)c2cc3c(cc2F)nc(N)c2cncn23)[C@H]1c1ccc(C(F)(F)F)cn1` [Ff-132, (4-amino-7-fluoroimidazo[1,5-a]quinoxalin-8-yl)((2S,3S)-2-methyl-3-(5-(trifluoromethyl)pyridin-2-yl)morpholino)methanone] has a CC50 of less than 100 nM.
In the case of `Nc1nc2cc(F)c(C(=O)N3CCCCC3c3ccc(C(F)(F)F)cn3)cc2n2cncc12` (stereo not shown) [Ff-133, (4-amino-7-fluoroimidazo[1,5-a]quinoxalin-8-yl)(2-(5-(trifluoromethyl)pyridin-2-yl)piperidin-1-yl)methanone], the CC50 is reported as less than 100 nM.
`CC(=O)N1CCN(C(=O)c2cc3c(cc2F)nc(N)c2cncn23)C(c2ccc(C(F)(F)F)cn2)C1` (stereo not shown) [Ff-134, 1-(4-(4-amino-7-fluoroimidazo[1,5-a]quinoxaline-8-carbonyl)-3-(5-(trifluoromethyl)pyridin-2-yl)piperazin-1-yl)ethan-1-one] gave a CC50 of 100 to 1000 nM.
With `CS(=O)(=O)N1CCN(C(=O)c2cc3c(cc2F)nc(N)c2cncn23)C(c2ccc(C(F)(F)F)cn2)C1` (stereo not shown) [Ff-135, (4-amino-7-fluoroimidazo[1,5-a]quinoxalin-8-yl)(4-(methylsulfonyl)-2-(5-(trifluoromethyl)pyridin-2-yl)piperazin-1-yl)methanone] the CC50 was 100 to 1000 nM.
For `CN1CCN(C(=O)c2cc3c(cc2F)nc(N)c2cncn23)C(c2ccc(C(F)(F)F)cn2)C1` (stereo not shown) [Ff-136, (4-amino-7-fluoroimidazo[1,5-a]quinoxalin-8-yl)(4-methyl-2-(5-(trifluoromethyl)pyridin-2-yl)piperazin-1-yl)methanone], the CC50 was 100 to 1000 nM.
`Cc1ncn2c1c(N)nc1cc(F)c(C(=O)N3CCOC[C@@H]3c3ccc(C(F)(F)F)cc3)cc12` [Ff-137] showed a CC50 of less than 100 nM.
Compound `Nc1nc2cc(F)c(C(=O)N3CCCC[C@@H]3c3ccc(C(F)(F)F)cc3)cc2n2cncc12` [Ff-139, (R)-(4-amino-7-fluoroimidazo[1,5-a]quinoxalin-8-yl)(2-(4-(trifluoromethyl)phenyl)piperidin-1-yl)methanone] has a CC50 of less than 100 nM.
`Nc1nc2cc(F)c(C(=O)N3CCN(C4COC4)CC3c3ccc(C(F)(F)F)cn3)cc2n2cncc12` (stereo not shown) [Ff-140, (4-amino-7-fluoroimidazo[1,5-a]quinoxalin-8-yl)(4-(oxetan-3-yl)-2-(5-(trifluoromethyl)pyridin-2-yl)piperazin-1-yl)methanone] showed a CC50 of 100 to 1000 nM.
`Nc1nc2cc(F)c(C(=O)N3CCCCC3c3ccc(C(F)(F)F)cc3F)cc2n2cncc12` (stereo not shown) [Ff-141, (4-amino-7-fluoroimidazo[1,5-a]quinoxalin-8-yl)(2-(2-fluoro-4-(trifluoromethyl)phenyl)piperidin-1-yl)methanone] gave a CC50 of less than 100 nM.
In the case of `C[C@@H]1COC[C@H](c2ccc(C(F)(F)F)cn2)N1C(=O)c1cc2c(cn1)nc(N)c1cncn12` [Ff-142, (4-aminoimidazo[1,5-a]pyrido[3,4-e]pyrazin-8-yl)((3R,5S)-3-methyl-5-(5-(trifluoromethyl)pyridin-2-yl)morpholino)methanone], the CC50 is reported as less than 100 nM.
`COc1cc(C(F)(F)F)ccc1C1CCCCN1C(=O)c1cc2c(cc1F)nc(N)c1cncn12` (stereo not shown) [Ff-143, (4-amino-7-fluoroimidazo[1,5-a]quinoxalin-8-yl)(2-(2-methoxy-4-(trifluoromethyl)phenyl)piperidin-1-yl)methanone] gave a CC50 of 100 to 1000 nM.
With `CN(C(=O)c1cc2c(cc1F)nc(N)c1cncn12)[C@@H]1COc2cc(-c3cnn(C4COC4)c3)ccc21` [Ff-145, (S)-4-amino-7-fluoro-N-methyl-N-(6-(1-(oxetan-3-yl)-1H-pyrazol-4-yl)-2,3-dihydrobenzofuran-3-yl)imidazo[1,5-a]quinoxaline-8-carboxamide] the CC50 was less than 100 nM.
Compound `CC(C)N(Cc1ccc(-c2cnn(-c3ccccn3)c2)cc1F)C(=O)c1cc2c(cc1F)nc(N)c1cncn12` [Ff-147, 4-amino-7-fluoro-N-(2-fluoro-4-(1-(pyridin-2-yl)-1H-pyrazol-4-yl)benzyl)-N-isopropylimidazo[1,5-a]quinoxaline-8-carboxamide] has a CC50 of less than 100 nM.
`CC(C)N(Cc1ccc(-c2cnn(-c3cccnc3)c2)cc1F)C(=O)c1cc2c(cc1F)nc(N)c1cncn12` [Ff-148, 4-amino-7-fluoro-N-(2-fluoro-4-(1-(pyridin-3-yl)-1H-pyrazol-4-yl)benzyl)-N-isopropylimidazo[1,5-a]quinoxaline-8-carboxamide] was tested, and the CC50 was less than 100 nM.
